In patent publication US20030095958A1, “Inhibitors of bace” (priority 2001, published 2003) one finds Ki data, which are given here for 33 compounds.

Structures are written as SMILES.

The assay addresses BACE (Homo sapiens, UniProt P56817). Description: Ki Determination for the Inhibition of BACE (FS-1 peptide fluorescence cleavage assay). As to conditions: apparent Ki; 50 nM BACE, 10 μM FS-1 substrate, 0.1M sodium acetate pH 4.5. It counts as biochemical. In short, it runs like this:
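Human BACE (50 nM) was preincubated 15 min at room temperature with compound (2% DMSO) in 0.1 M sodium acetate pH 4.5, then 10 μM FS-1 peptide was added. Cleavage was followed by fluorescence (ex 355/em 495 nm), and apparent Ki came from fitting to the integrated competitive tight-binding inhibition equation.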

Sequence of BACE (P56817 46-501): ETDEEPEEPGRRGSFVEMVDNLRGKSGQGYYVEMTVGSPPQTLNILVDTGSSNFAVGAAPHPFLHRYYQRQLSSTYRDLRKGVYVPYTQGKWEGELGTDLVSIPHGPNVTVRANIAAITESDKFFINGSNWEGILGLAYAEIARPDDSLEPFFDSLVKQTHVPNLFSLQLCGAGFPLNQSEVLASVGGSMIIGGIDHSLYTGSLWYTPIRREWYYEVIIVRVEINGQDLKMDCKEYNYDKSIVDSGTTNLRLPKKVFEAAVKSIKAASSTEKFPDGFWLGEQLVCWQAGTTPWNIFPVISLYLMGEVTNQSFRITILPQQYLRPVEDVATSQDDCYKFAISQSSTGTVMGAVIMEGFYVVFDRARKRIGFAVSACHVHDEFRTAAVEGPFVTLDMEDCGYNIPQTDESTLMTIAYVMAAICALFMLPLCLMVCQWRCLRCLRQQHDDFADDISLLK

As to `CN(C)C(=O)C1CN(c2ccc(-c3ccc(C(F)(F)F)cc3)cc2NCc2ccc3ccccc3c2)CCN1` (stereo not drawn) [Compound 195, 4-{3-[(Naphthalen-2-ylmethyl)-amino]-4′-trifluoromethyl-biphenyl-4-yl}-piperazine-2-carboxylic acid dimethylamide], the Ki is below 3 µM.

Take `Cc1cc(Cl)ccc1OCCCC(=O)N1CCNCC1C(=O)Nc1ccc2ccccc2c1` (stereo not drawn) [Compound 200, 1-[4-(4-Chloro-2-methyl-phenoxy)-butyryl]-piperazine-2-carboxylic acid naphthalen-2-ylamide]: the Ki was above 30 µM.

Regarding `O=C(Nc1cc(C(F)(F)F)ccc1N1CCCNCC1)c1cccc2ccccc12` [Compound 201, Naphthalene-1-carboxylic acid (2-[1,4]diazepan-1-yl-5-trifluoromethyl-phenyl)-amide], the Ki is above 30 µM.

Consider `O=C(Nc1ccc2ccccc2c1)C1CNCCc2c1[nH]c1ccccc21` (stereo not drawn) [Compound 202, 1,2,3,4,5,6-Hexahydro-azepino[4,5-b]indole-5-carboxylic acid naphthalen-2-ylamide], for which the Ki was above 30 µM.

With `O=C(NCc1ccco1)C1CNCCC1c1ccc(COc2ccccc2C(F)(F)F)cc1` (stereo not drawn) [Compound 203, 4-[4-(2-Trifluoromethyl-phenoxymethyl)-phenyl]-piperidine-3-carboxylic acid (furan-2-ylmethyl)-amide], the Ki is above 30 µM.

In the case of `O=C(Nc1ccccc1)C1CNCCC1c1ccc(COc2ccccc2C(F)(F)F)cc1` (stereo not drawn) [Compound 204], the Ki is above 30 µM.

`O=C(C1CNCCC1c1ccc(COc2ccccc2C(F)(F)F)cc1)N1CCc2ccccc2C1` (stereo not drawn) [Compound 205, (3,4-Dihydro-1H-isoquinolin-2-yl)-{4-[4-(2-trifluoromethyl-phenoxymethyl)-phenyl]-piperidin-3-yl}-methanone]: the Ki was above 30 µM.

On to `O=C(Nc1ccc2ccccc2c1)C1CNCCN1C(=O)c1cccc(COc2ccccc2C(F)(F)F)c1` (stereo not drawn) [Compound 206, 1-[3-(2-Trifluoromethyl-phenoxymethyl)-benzoyl]-piperazine-2-carboxylic acid naphthalen-2-ylamide], for which the Ki was above 30 µM.

`O=C(O)C1CCCCC1C(=O)NCC1CNCCC1c1ccc(COc2ccccc2C(F)(F)F)cc1` (stereo not drawn) [Compound 207, 2-({4-[4-(2-Trifluoromethyl-phenoxymethyl)-phenyl]-piperidin-3-ylmethyl}-carbamoyl)-cyclohexanecarboxylic acid]: the Ki was above 30 µM.

`O=C(NCc1ccccc1OC(F)(F)F)C1CNCCC1c1ccc(COc2ccccc2C(F)(F)F)cc1` (stereo not drawn) [Compound 208, 4-[4-(2-Trifluoromethyl-phenoxymethyl)-phenyl]-piperidine-3-carboxylic acid 2-trifluoromethoxy-benzylamide]: the Ki was above 30 µM.

For the compound `O=C(NC1CCCc2ccccc21)C1CNCCC1c1ccc(COc2ccccc2C(F)(F)F)cc1` (stereo not drawn) [Compound 209, 4-[4-(2-Trifluoromethyl-phenoxymethyl)-phenyl]-piperidine-3-carboxylic acid (1,2,3,4-tetrahydro-naphthalen-1-yl)-amide], the Ki lay within 3 to 30 µM.

As for `C1=C(c2cnc(OCc3ccccc3)nc2OCc2ccccc2)CCNC1` [Compound 210, 2,4-Bis-benzyloxy-5-(1,2,3,6-tetrahydro-pyridin-4-yl)-pyrimidine], the Ki was in the range of 3 to 30 µM.

Take `O=C(NC(c1ccccc1)c1ccccc1)C1CNCCC1c1ccc(COc2ccccc2C(F)(F)F)cc1` (stereo not drawn) [Compound 211, 4-[4-(2-Trifluoromethyl-phenoxymethyl)-phenyl]-piperidine-3-carboxylic acid benzhydryl-amide]: the Ki is 3 to 30 µM.

For the compound `O=C1c2ccccc2C(=O)N1CC1CNCCC1c1ccc(COc2ccccc2C(F)(F)F)cc1` (stereo not drawn) [Compound 212, 2-{4-[4-(2-Trifluoromethyl-phenoxymethyl)-phenyl]-piperidin-3-ylmethyl}-isoindole-1,3-dione], the Ki was 3 to 30 µM.

For `O=C(O)c1cc2ccccc2cc1C(=O)NCC1CNCCC1c1ccc(COc2ccccc2C(F)(F)F)cc1` (stereo not drawn) [Compound 213, 3-({4-[4-(2-Trifluoromethyl-phenoxymethyl)-phenyl]-piperidin-3-ylmethyl}-carbamoyl)-naphthalene-2-carboxylic acid], the Ki is 3 to 30 µM.

For `O=c1cc(-c2ccccc2)nc(C2CCNCC2)n1Cc1ccccc1C(F)(F)F` [Compound 214, 6-Phenyl-2-piperidin-4-yl-3-(2-trifluoromethyl-benzyl)-3H-pyrimidin-4-one], the Ki lay in the range of 3 to 30 µM.

`O=C(NCc1cccc2ccccc12)C1CNCCC1c1ccc(COc2ccccc2C(F)(F)F)cc1` (stereo not drawn) [Compound 215, 4-[4-(2-Trifluoromethyl-phenoxymethyl)-phenyl]-piperidine-3-carboxylic acid (naphthalen-1-ylmethyl)-amide]: the Ki lay in the range of 3 to 30 µM.

Take `O=C(Nc1ccc2ccccc2c1)C1CNCCC1c1ccc(COc2ccccc2C(F)(F)F)cc1` (stereo not drawn) [Compound 216, 4-[4-(2-Trifluoromethyl-phenoxymethyl)-phenyl]-piperidine-3-carboxylic acid naphthalen-2-ylamide]: the Ki was 3 to 30 µM.

As for `O=C(Nc1cnc(-c2ccc(Cl)c(Cl)c2)nc1N1CCNCC1)c1cccc2ccccc12` [Compound 217, Naphthalene-1-carboxylic acid [2-(3,4-dichloro-phenyl)-4-piperazin-1-yl-pyrimidin-5-yl]-amide], the Ki is 3 to 30 µM.

As for `O=c1cc(-c2ccccc2)nc(C2CCNCC2)n1Cc1ccc2ccccc2c1` [Compound 218, 3-Naphthalen-2-ylmethyl-6-phenyl-2-piperidin-4-yl-3H-pyrimidin-4-one], the Ki lay within 3 to 30 µM.

For `O=C(NC1CCc2ccccc2C1)C1CNCCC1c1ccc(COc2ccccc2C(F)(F)F)cc1` (stereo not drawn) [Compound 219, 4-[4-(2-Trifluoromethyl-phenoxymethyl)-phenyl]-piperidine-3-carboxylic acid (1,2,3,4-tetrahydro-naphthalen-2-yl)-amide], the Ki was 3 to 30 µM.

Take `O=C(C1CNCCC1c1ccc(COc2ccccc2C(F)(F)F)cc1)N(Cc1ccccc1)c1ccc2ccccc2c1` (stereo not drawn) [Compound 220, 4-[4-(2-Trifluoromethyl-phenoxymethyl)-phenyl]-piperidine-3-carboxylic acid benzyl-naphthalen-2-yl-amide]: the Ki fell in the range of 3 to 30 µM.

Take `O=C(NCC1CNCCC1c1ccc(COc2ccccc2C(F)(F)F)cc1)c1cccc2ccccc12` (stereo not drawn) [Compound 221, Naphthalene-1-carboxylic acid {4-[4-(2-trifluoromethyl-phenoxymethyl)-phenyl]-piperidin-3-ylmethyl}-amide]: the Ki was in the range of 3 to 30 µM.

Take `O=C(NCC1CNCCC1c1ccc(COc2ccccc2C(F)(F)F)cc1)c1ccc2ccccc2c1` (stereo not drawn) [Compound 222, Naphthalene-2-carboxylic acid {4-[4-(2-trifluoromethyl-phenoxymethyl)-phenyl]-piperidin-3-ylmethyl}-amide]: the Ki is 3 to 30 µM.

For the compound `O=C(NC(Cc1ccccc1)C(=O)N1CCCC1C(=O)NCC1CNCCC1c1ccc(COc2ccccc2C(F)(F)F)cc1)OCc1ccccc1` (stereo not drawn) [Compound 223, {1-Benzyl-2-oxo-2-[2-({4-[4-(2-trifluoromethyl-phenoxymethyl)-phenyl]-piperidin-3-ylmethyl}-carbamoyl)-pyrrolidin-1-yl]-ethyl}-carbamic acid benzyl ester], the Ki was 3 to 30 µM.

`O=C(NCC1CNCCC1c1ccc(COc2ccccc2C(F)(F)F)cc1)Nc1cccc2ccccc12` (stereo not drawn) [Compound 224, 1-Naphthalen-1-yl-3-{4-[4-(2-trifluoromethyl-phenoxymethyl)-phenyl]-piperidin-3-ylmethyl}-urea]: the Ki fell in the range of 3 to 30 µM.

Take `O=C(CNC(=O)C(Cc1ccccc1)NC(=O)OCc1ccccc1)NCC1CNCCC1c1ccc(COc2ccccc2C(F)(F)F)cc1` (stereo not drawn) [Compound 225, (2-Phenyl-1-{[({4-[4-(2-trifluoromethyl-phenoxymethyl)-phenyl]-piperidin-3-ylmethyl}-carbamoyl)-methyl]-carbamoyl}-ethyl)-carbamic acid benzyl ester]: the Ki was 3 to 30 µM.

For the compound `CNCCN(C)c1ccc(-c2ccc(C(F)(F)F)cc2)cc1NCc1ccc2ccccc2c1` [Compound 226, N4-Methyl-N4-(2-methylamino-ethyl)-N3-naphthalen-2-ylmethyl-4′-trifluoromethyl-biphenyl-3,4-diamine], the Ki is below 3 µM.

With `O=C(Nc1ccc(-c2ccc(Cl)c(Cl)c2)nc1N1CCNCC1)c1cccc2ccccc12` [Compound 227, Naphthalene-1-carboxylic acid [6-(3,4-dichloro-phenyl)-2-piperazin-1-yl-pyridin-3-yl]-amide], the Ki was below 3 µM.

Consider `O=C(NCC1CNCCC1c1ccc(COc2ccccc2C(F)(F)F)cc1)Oc1ccc2ccccc2c1` (stereo not drawn) [Compound 228, {4-[4-(2-Trifluoromethyl-phenoxymethyl)-phenyl]-piperidin-3-ylmethyl}-carbamic acid naphthalen-2-yl ester], for which the Ki is below 3 µM.

Consider `O=C(NCC1CNCCC1c1ccc(COc2ccccc2C(F)(F)F)cc1)Oc1cccc2ccccc12` (stereo not drawn) [Compound 229, {4-[4-(2-Trifluoromethyl-phenoxymethyl)-phenyl]-piperidin-3-ylmethyl}-carbamic acid naphthalen-1-yl ester], for which the Ki is below 3 µM.

In the case of `O=C(NC(Cc1c[nH]c2ccccc12)C(=O)N1CCCC1C(=O)NCC1CNCCC1c1ccc(COc2ccccc2C(F)(F)F)cc1)OCC1c2ccccc2-c2ccccc21` (stereo not drawn) [Compound 230, {1-(1H-Indol-3-ylmethyl)-2-oxo-2-[2-{{4-[4-(2-trifluoromethyl-phenoxymethyl)-phenyl]-piperidin-3-ylmethyl}-carbamoyl)-pyrrolidin-1-yl]-ethyl}-carbamic acid 9H-fluoren-9-ylmethyl ester], the Ki was below 3 µM.

For the compound `O=S(=O)(NCC1CNCCC1c1ccc(COc2ccccc2C(F)(F)F)cc1)c1ccc2ccccc2c1` (stereo not drawn) [Compound 231, Naphthalene-2-sulfonic acid {4-[4-(2-trifluoromethyl-phenoxymethyl)-phenyl]-piperidin-3-ylmethyl}-amide], the Ki was below 3 µM.
